Test results from patent publication EP0561913B1, “USE OF PYRIDINE DERIVATIVES IN THE TREATMENT OF OCULAR HYPERTENSION” (ALLERGAN, INC., priority 1990, dated 1992).
“Also recorded” adds a separate entry of the source. Like-named read-outs stand apart in the source and are kept apart here.

Assays:
owl monkeys [1] = assay: Pupil diameter (miosis), topical application
Protocol: (§1) Pyridine-1,2,3,6-tetrahydro-5-(5-isoxazolyl)-1-methyl-ethanedioate ("test compound") or pilocarpine were applied either topically into the eyes of owl monkeys (200 µg in 10 µl) or intracamerally into the eye of rabbits (10 µg in 20 µl). Control animals were treated with a saline vehicle. Pupil diameter and IOP were measured for 0-6 hours. IOP was measured using pneumatometer (Digilab/ Biorad) and pupil diameter was measured using Optistick ruler (Allergan). Animals used in these studies had normal intraocular pressure.
(§2) Muscarinic activity was determined by treatment with atropine (muscarinic antagonist). In rabbits 5 µg atropine was coinjected with the test compounds and in owl monkey 5 µg atropine (10 µl) was applied 30 minutes before treatment with the test compound.
(§3) Intraocular pressure (mmHg) or pupil diameter (mm) were expressed as changes from time 0.

rabbits [2] = assay: In vivo study of intraocular pressure reducing activity, intracameral injection
Protocol: as §1, §2, §3

owl monkeys [3] = assay: In vivo study of intraocular pressure reducing activity, topical application
Protocol: as §1, §2, §3

[4] = test system: cat ciliary smooth muscle; assay: In vitro contraction of isolated ciliary smooth muscle in organ bath; type: cell-based; settings: for EC50: cumulative dose response, 37°C, read-out: ED50 (concentration that caused 50% of maximum contraction)
Protocol: (§4) Iris sphincter and ciliary smooth muscles were excised from freshly enucleated cat eyes. The tissues were placed in an organ bath containing Tyrode's solution (composition in mM: NaCl 137, KCl 2.7, CaCl2 1.8, MgCl2 1.05, NaHCO3 11.9, NaH2PO4 0.42, D-glucose 5.6) at 37°C, aerated with 95% oxygen and 5% carbon dioxide. One end of the tissue was fastened to a hook in the bath and the other end was attached to a force displacement transducer connected to a polygraph. The tissues were allowed to equilibrate for 60 minutes under a load of 100-200 mg tension. […] Increasing concentrations of the test compound (0.1 - 1000 µM) were then added into the bath to generate cumulative dose response. […] Results were from three or more experiments expressed as mean ± S.E.

rabbits [5] = assay: Pupil diameter (miosis), intracameral injection
Protocol: as §1, §2, §3

[6] = test system: cat iris sphincter smooth muscle; assay: In vitro contraction of isolated iris sphincter smooth muscle in organ bath; type: cell-based; settings: for EC50: cumulative dose response, 37°C, read-out: ED50 (concentration that caused 50% of maximum contraction)
Protocol: as §4

rabbits [7] = settings: normotensive rabbits or humans, from literature; cited from earlier work
[8] = topical 5 µg/10 µl atropine, test compound 200 µg/10 µl

CN1[C@@H]2CC[C@H]1C[C@@H](OC(=O)C(CO)c1ccccc1)C2 (some centres unmarked) [atropine]
inhibition of miotic effect of the test compound by atropine (owl monkeys [1]; [8]): completely inhibited
inhibition of IOP effect of the test compound by atropine (rabbits [2]; rabbits, 5 µg/20 µl atropine coinjected with test compound 10 µg/20 µl): partial inhibition
inhibition of IOP effect of the test compound by atropine (rabbits [2]; rabbits, topical 0.5% atropine solution every 2 hours (data not shown)): no inhibitory effect
inhibition of IOP reducing effect of the test compound by atropine (owl monkeys [3]; [8]): no inhibitory effect
inhibition of test compound-induced contraction by atropine ([4]; 10 nM atropine for 30 minutes before test compound): competitive inhibition
inhibition of miotic effect of the test compound by atropine (rabbits [5]; 5 µg atropine with test compound 10 µg/20 µl intracameral): completely inhibited
effect of atropine in inhibiting the response of the iris relative to the ciliary ([6]; 10 nM atropine, iris versus ciliary muscle): 2.5 times
inhibition of test compound-induced contraction by atropine ([6]; cat iris sphincter muscle, 10 nM atropine for 30 minutes before test compound): competitive inhibition

CN1CCC=C(c2ccno2)C1.O=C(O)C(=O)O [test compound, Pyridine-1,2,3,6-tetrahydro-5-(5-isoxazolyl)-1-methyl-ethanedioate]
miosis, decrease in pupil size (owl monkeys [1]; topical 200 µg/10 µl, at 1 hour): 48%
miosis, recovered to % of 0 time (owl monkeys [1]; topical 200 µg/10 µl, within 3 to 6 hours): 15%
decrease in IOP (rabbits [2]; normotensive rabbits, intracameral 10 µg/20 µl, 5 hours after administration, change from time 0): 6 mmHg
duration of IOP decreasing activity (rabbits [2]; rabbits, intracameral 10 µg/20 µl, experimental period ended at 6 hours): > 6 h
maximum decrease in IOP (owl monkeys [3]; topical 200 µg/10 µl, after 5 and 6 hours): 4 mmHg
duration of IOP reducing effect (owl monkeys [3]; topical 200 µg/10 µl, experimental period of 6 hours): > 6 h
EC50 [4]: 30 µM
miosis (rabbits [5]; intracameral 10 µg/20 µl, effect of pilocarpine greater than that of the test compound): caused miosis
time of maximum miotic response (rabbits [5]; intracameral 10 µg/20 µl, followed by recovery): 0.5 h
EC50 ([6]; cat iris sphincter muscle): 20 µM

CC[C@@H]1C(=O)OC[C@@H]1Cc1cncn1C [pilocarpine, (3S,4R)-3-ethyl-4-{(1-methyl-1H-imidazol-5-yl)methyl}-3,4-dihydro-2(3H)-furanone]
effect on IOP (rabbits [2]; normotensive rabbits, intracameral 10 µg/20 µl, result in words): no hypotensive effect; also recorded: slight hypertensive action
decrease in IOP (owl monkeys [3]; topical 200 µg/10 µl, at 3 hours, effect decreased thereafter): about 3 mmHg
EC50 ([4]; Felis catus): 4 µM
decrease in IOP (rabbits [7]): little or no decrease
EC50 ([6]; Felis catus, cat iris sphincter muscle): 4 µM
